Results published in patent US5286648A, “A84575 antibiotics” (Eli Lilly and Company, priority 1991, dated 1994).
Converted amounts (≈) assume the structure as drawn.

Assays:
[1] = system: Peptostreptococcus intermedius; test: Susceptibility of anaerobic cocci isolates, agar dilution (Table 16); format: cell-based; details: 24 h
[2] = system: Peptococcus asaccharolyticus; test: as above; format: cell-based; details: Peptoniphilus asaccharolyticus, 24 h
[3] = system: Bacteroides vulgatis; test: Susceptibility of anaerobic bacterial isolates, agar dilution (Table 13); format: cell-based; details: 24 h
[4] = system: Bacteroides corrodens; test: as above; format: cell-based; details: Eikenella corrodens, 24 h
[5] = system: Peptococcus magnus; test: Susceptibility of anaerobic cocci isolates, agar dilution (Table 16); format: cell-based; details: Finegoldia magna, 24 h
[6] = system: Bacteroides fragilis; test: Susceptibility of anaerobic bacterial isolates, agar dilution (Table 13); format: cell-based
[7] = system: Clostridium perfringens; test: microbe, parasite or virus in culture; format: cell-based; details: 24 h
[8] = system: Streptococcus pneumoniae; test: In vitro activity vs. Streptococcus pneumoniae strains, agar dilution, Mueller-Hinton agar (Table 10)
[9] = system: Peptostreptococcus intermedius; test: Susceptibility of anaerobic bacterial isolates, agar dilution (Table 13); format: cell-based; details: 24 h
[10] = system: Peptococcus constellatus; test: Susceptibility of anaerobic cocci isolates, agar dilution (Table 16); format: cell-based; details: Streptococcus constellatus, 24 h
[11] = system: Hemophilus influenza; test: In vitro activity vs. Hemophilus influenza strains, broth dilution, Shadler broth + 5% fildes extract (Table 12); format: cell-based
Text: ^1 Using brothdilution method and testing the strains with Shadler
broth +5% fildes extract

[12] = system: Clostridium difficile; test: Susceptibility of Clostridium difficile strains, agar dilution (Table 14); format: cell-based; details: Clostridioides difficile, 24 h
Text: (§1) *MIC Determined by the AgarDilution Method, Endpoints Read After 24Hr.

[13] = system: Propionibacterium acnes; test: Susceptibility of Propionibacterium acnes isolates, agar dilution (Table 15); format: cell-based; details: Cutibacterium acnes, 24 h
[14] = system: S. salivarius; test: In vitro activity vs. miscellaneous Streptococcus strains, agar dilution, Mueller-Hinton agar (Table 9)
[15] = system: Peptococcus variabilis; test: Susceptibility of anaerobic cocci isolates, agar dilution (Table 16); format: cell-based; details: 24 h
[16] = system: Streptococcus sp. (Group D); test: In vitro activity vs. Streptococcus sp. (Group D) strains, agar dilution, Mueller-Hinton agar (Table 8); format: cell-based
[17] = system: S. sanguis; test: In vitro activity vs. miscellaneous Streptococcus strains, agar dilution, Mueller-Hinton agar (Table 9)
[18] = system: Streptococcus pneumoniae; test: In vivo activity, administered subcutaneously to mice (Table 17); details: sc, subcutaneous, LD challenge 587
[19] = system: Fusobacterium symbiosum; test: Susceptibility of anaerobic bacterial isolates, agar dilution (Table 13); format: cell-based; details: 24 h
[20] = system: Bacteroides thetaiotaomicron; test: as above; format: cell-based; details: strain 1438, 24 hr, A84575: 3 different lots
Text: as §1

[21] = system: Peptococcus prevoti; test: as above; format: cell-based; details: strain 1281; 24 hr; A84575: 3 different lots
Text: as §1

[22] = system: Clostridium septicum; test: as above; format: cell-based; details: strain 1128, 24 hr, A84575: 3 different lots
Text: as §1

[23] = system: Clostridium difficile; test: as above; format: cell-based; details: Clostridioides difficile; strain 2994; 24 hr; A84575: 3 different lots
Text: as §1

CN[C@H](CC(C)C)C(=O)N[C@H]1C(=O)N[C@@H](CC(N)=O)C(=O)N[C@H]2C(=O)N[C@H]3C(=O)N[C@H](C(=O)N[C@H](C(=O)O)c4cc(O)cc(O)c4-c4cc3ccc4O)[C@H](O)c3ccc(c(Cl)c3)Oc3cc2cc(c3O[C@@H]2O[C@H](CO)[C@@H](O)[C@H](O)[C@H]2O[C@H]2C[C@](C)(N)[C@H](O)[C@H](C)O2)Oc2ccc(cc2Cl)[C@H]1O [Vancomycin]
MIC ([1]; strain 1524, A84575: 3 different lots): 1 µg/mL (≈ 0.69 µM) | MIC ([1]; strain 1624, A84575: 3 different lots): 0.25 µg/mL (≈ 0.173 µM) | MIC ([2]; strain 1302, A84575: 3 different lots): 1 µg/mL (≈ 0.69 µM) | MIC ([2]; strain WAL-3218, A84575: 3 different lots): 0.125 µg/mL (≈ 0.0863 µM) | MIC [3]: 8 µg/mL (≈ 5.52 µM) | MIC [4]: 16 µg/mL (≈ 11 µM) | MIC ([5]; strain 1401, A84575: 3 different lots): 0.125 µg/mL (≈ 0.0863 µM) | MIC ([5]; strain 1421, A84575: 3 different lots): 0.5 µg/mL (≈ 0.345 µM) | MIC ([5]; strain 29328, A84575: 3 different lots): 1 µg/mL (≈ 0.69 µM) | MIC ([6]; Bacteroides fragilis, 24 h): 16 µg/mL (≈ 11 µM) | MIC ([6]; strain 1877, 24 hr, A84575: 3 different lots): 16 µg/mL (≈ 11 µM) | MIC ([6]; strain 1936B, 24 hr, A84575: 3 different lots): 16 µg/mL (≈ 11 µM) | MIC [7]: 1 µg/mL (≈ 0.69 µM) | MIC ([8]; ATCC6301, strain ATCC 6301): 4 µg/mL (≈ 2.76 µM) | MIC ([8]; strain 97P): 0.25 µg/mL (≈ 0.173 µM) | MIC ([8]; strain 2764): 0.25 µg/mL (≈ 0.173 µM) | MIC ([8]; strain BI5): 0.5 µg/mL (≈ 0.345 µM) | MIC ([8]; strain BI343): 0.25 µg/mL (≈ 0.173 µM) | MIC ([8]; strain BI348): 0.25 µg/mL (≈ 0.173 µM) | MIC ([8]; strain BI374): 4 µg/mL (≈ 2.76 µM) | MIC ([8]; strain BI508): 0.5 µg/mL (≈ 0.345 µM) | MIC ([8]; strain BI180351): 0.25 µg/mL (≈ 0.173 µM) | MIC ([8]; strain BI-492): 0.5 µg/mL (≈ 0.345 µM) | MIC ([8]; strain HZ-4-2): 0.25 µg/mL (≈ 0.173 µM) | MIC ([8]; strain M11-1-H7): 0.5 µg/mL (≈ 0.345 µM) | MIC ([8]; strain M11-1-H10): 0.25 µg/mL (≈ 0.173 µM) | MIC ([8]; strain M11-Z-Al): 0.25 µg/mL (≈ 0.173 µM) | MIC ([8]; strain Park I): 0.5 µg/mL (≈ 0.345 µM) | MIC [9]: 1 µg/mL (≈ 0.69 µM) | MIC [10]: 1 µg/mL (≈ 0.69 µM) | MIC ([11]; strain Astes): 64 µg/mL | MIC ([11]; strain Bond): 64 µg/mL | MIC ([11]; strain Bruno): 128 µg/mL | MIC ([11]; strain Harper): 64 µg/mL | MIC ([11]; strain Johnson): 64 µg/mL | MIC ([11]; strain Lassig): 32 µg/mL | MIC ([11]; strain Lawrence): 64 µg/mL | MIC ([11]; strain Newton): 64 µg/mL | MIC ([12]; strain 78, A84575: 3 different lots): 4 µg/mL (≈ 2.76 µM) | MIC ([12]; strain 107B, A84575: 3 different lots): 0.25 µg/mL (≈ 0.173 µM) | MIC ([12]; strain 111F, A84575: 3 different lots): 1 µg/mL (≈ 0.69 µM) | MIC ([12]; strain 1153, A84575: 3 different lots): 1 µg/mL (≈ 0.69 µM) | MIC ([12]; strain 2634, A84575: 3 different lots): 0.5 µg/mL (≈ 0.345 µM) | MIC ([12]; strain 3424-5B, A84575: 3 different lots): 1 µg/mL (≈ 0.69 µM) | MIC ([12]; strain 3816, A84575: 3 different lots): 1 µg/mL (≈ 0.69 µM) | MIC ([12]; strain 3950D, A84575: 3 different lots): 0.5 µg/mL (≈ 0.345 µM) | MIC ([12]; strain 6890, A84575: 3 different lots): 0.5 µg/mL (≈ 0.345 µM) | MIC ([12]; strain 8484, A84575: 3 different lots): 2 µg/mL (≈ 1.38 µM) | MIC ([12]; strain A-194, A84575: 3 different lots): 1 µg/mL (≈ 0.69 µM) | MIC ([12]; strain A-195, A84575: 3 different lots): 0.5 µg/mL (≈ 0.345 µM) | MIC ([12]; strain A-196, A84575: 3 different lots): 0.5 µg/mL (≈ 0.345 µM) | MIC ([12]; strain A-279, A84575: 3 different lots): 0.5 µg/mL (≈ 0.345 µM) | MIC ([12]; strain A-280, A84575: 3 different lots): 1 µg/mL (≈ 0.69 µM) | MIC ([12]; strain A-281, A84575: 3 different lots): 1 µg/mL (≈ 0.69 µM) | MIC ([12]; strain WAL-2112, A84575: 3 different lots): 1 µg/mL (≈ 0.69 µM) | MIC ([12]; strain WAL-3657, A84575: 3 different lots): 2 µg/mL (≈ 1.38 µM) | MIC ([12]; strain WAL-4268, A84575: 3 different lots): 1 µg/mL (≈ 0.69 µM) | MIC ([13]; strain #44, A84575: 3 different lots): 0.5 µg/mL (≈ 0.345 µM) | MIC ([13]; strain #103, A84575: 3 different lots): 0.25 µg/mL (≈ 0.173 µM) | MIC ([13]; strain #104, A84575: 3 different lots): 0.5 µg/mL (≈ 0.345 µM) | MIC ([13]; strain #105, A84575: 3 different lots): 0.25 µg/mL (≈ 0.173 µM) | MIC ([13]; strain #106, A84575: 3 different lots): 0.5 µg/mL (≈ 0.345 µM) | MIC ([13]; strain #107, A84575: 3 different lots): 0.25 µg/mL (≈ 0.173 µM) | MIC ([13]; strain #5170, A84575: 3 different lots): 0.25 µg/mL (≈ 0.173 µM) | MIC ([13]; strain #5176, A84575: 3 different lots): 2 µg/mL (≈ 1.38 µM) | MIC ([13]; strain #5187, A84575: 3 different lots): 0.5 µg/mL (≈ 0.345 µM) | MIC ([13]; strain #5191, A84575: 3 different lots): 0.5 µg/mL (≈ 0.345 µM) | MIC ([13]; strain #5197, A84575: 3 different lots): 0.5 µg/mL (≈ 0.345 µM) | MIC ([13]; strain #5226, A84575: 3 different lots): 0.5 µg/mL (≈ 0.345 µM) | MIC ([13]; strain #5227, A84575: 3 different lots): 0.25 µg/mL (≈ 0.173 µM) | MIC ([13]; strain #5228, A84575: 3 different lots): 0.25 µg/mL (≈ 0.173 µM) | MIC ([13]; strain #5229, A84575: 3 different lots): 0.25 µg/mL (≈ 0.173 µM) | MIC ([13]; strain #5246, A84575: 3 different lots): 0.25 µg/mL (≈ 0.173 µM) | MIC ([13]; strain #5260, A84575: 3 different lots): 0.5 µg/mL (≈ 0.345 µM) | MIC ([13]; strain #5292, A84575: 3 different lots): 0.5 µg/mL (≈ 0.345 µM) | MIC ([13]; strain #8586A, A84575: 3 different lots): 0.5 µg/mL (≈ 0.345 µM) | MIC [14]: 1 µg/mL (≈ 0.69 µM) | MIC [15]: 0.125 µg/mL (≈ 0.0863 µM) | MIC ([16]; strain 282): 1 µg/mL (≈ 0.69 µM) | MIC ([16]; strain 8043): 1 µg/mL (≈ 0.69 µM) | MIC ([16]; strain 9901): 2 µg/mL (≈ 1.38 µM) | MIC ([16]; strain 9913): 1 µg/mL (≈ 0.69 µM) | MIC ([16]; strain 9933 Beta): 4 µg/mL (≈ 2.76 µM) | MIC ([16]; strain 9960): 4 µg/mL (≈ 2.76 µM) | MIC ([16]; strain 12253F): 1 µg/mL (≈ 0.69 µM) | MIC ([16]; strain 22521): 4 µg/mL (≈ 2.76 µM) | MIC ([16]; strain M10): 4 µg/mL (≈ 2.76 µM) | MIC ([16]; strain M11): 1 µg/mL (≈ 0.69 µM) | MIC ([16]; strain M12): 4 µg/mL (≈ 2.76 µM) | MIC ([16]; strain M13): 2 µg/mL (≈ 1.38 µM) | MIC ([16]; strain M20): 1 µg/mL (≈ 0.69 µM) | MIC ([16]; strain M21): 4 µg/mL (≈ 2.76 µM) | MIC ([16]; strain M28): 4 µg/mL (≈ 2.76 µM) | MIC ([16]; strain M36): 4 µg/mL (≈ 2.76 µM) | MIC ([16]; strain M38): 1 µg/mL (≈ 0.69 µM) | MIC ([16]; strain Shrigley): 2 µg/mL (≈ 1.38 µM) | MIC ([16]; strain Van Almen): 4 µg/mL (≈ 2.76 µM) | MIC ([16]; strain Vietnam): 2 µg/mL (≈ 1.38 µM) | MIC ([17]; strain I-SSI-547): 0.5 µg/mL (≈ 0.345 µM) | MIC ([17]; strain I-SSI-910): 0.5 µg/mL (≈ 0.345 µM) | MIC ([17]; strain II-SSII-895): 0.5 µg/mL (≈ 0.345 µM) | MIC ([17]; strain II-SSII-911): 1 µg/mL (≈ 0.69 µM) | ED50 [18]: 1.58 mg/kg | MIC [19]: 1 µg/mL (≈ 0.69 µM) | MIC [20]: 16 µg/mL (≈ 11 µM) | MIC [21]: 4 µg/mL (≈ 2.76 µM) | MIC [22]: 2 µg/mL (≈ 1.38 µM) | MIC [23]: 2 µg/mL (≈ 1.38 µM)
